The values below come from ChEMBL document CHEMBL4028817, “Indole-TEMPO conjugates alleviate ischemia-reperfusion injury via attenuation of oxidative stress and preservation of mitochondrial function” (Bioorg Med Chem, 2017).

Activity calls are given as the source filed them. The calls are words filed in the database; no cut-off is given here.

Data set [1] relates to Mus musculus. Put plainly: Anti-inflammatory activity in ICR mouse assessed as inhibition of xylene induced ear edema at 0.10 mmol/kg pretreated orally for 30 mins followed by xylene challenge measured after 2 hrs relative to control. In kind it is functional. Particulars: po.
Data set [2] has as its system Mus musculus. The data set can be described thus: Anti-inflammatory activity in xylene induced ICR mouse ear edema model assessed as edema weight at 0.10 mmol/kg, po pretreated 30 mins followed by xylene challenge measured after 2 hrs (reference value: 4.07 +/- 0.51 mg). In kind it is functional.
The test system of data set [3] is Mus musculus. The data set can be described thus: Toxicity in mouse assessed as tail bleeding time at 0.50 mmol/kg, po administered 30 mins prior to tail transection measured every 30 secs (reference value: 120.5 +/- 7.9 sec). It is filed as organism-based. Particulars: in vivo.
Data set [4] deals with Mus musculus. The data set can be described thus: Toxicity in mouse assessed as tail bleeding time at 0.50 mmol/kg, po administered 45 mins prior to tail transection measured every 30 secs (reference value: 119.8 +/- 8.4 sec). The settings on record: in vivo. In kind it is organism-based.
The test system of data set [5] is Mus musculus. Put plainly: Toxicity in mouse assessed as tail bleeding time at 0.50 mmol/kg, po administered 60 mins prior to tail transection measured every 30 secs (reference value: 120.4 +/- 7.9 sec). In kind it is organism-based. The settings on record: in vivo.
Data set [6] has as its system Mus musculus. Put plainly: Toxicity in mouse assessed as tail bleeding time at 0.50 mmol/kg, po administered 90 mins prior to tail transection measured every 30 secs (reference value: 119.3 +/- 7.7 sec). In kind it is organism-based. Particulars: in vivo.
Data set [7] relates to HUVEC. Put plainly: Protection against simulated ischemia/reperfusion injury-induced cell death in HUVEC assessed as increase in cell viability at 30 ug/ml treated for 12 hrs under normoxic condition prior to simulated ischemia for 2 hrs followed by compound washout measured 3 hrs post reperfusion. It is filed as functional, cell-based. Particulars: Homo sapiens.
Data set [8] relates to HUVEC. Put plainly: Protection against simulated ischemia/reperfusion injury induced mitochondrial oxidative damage in HUVEC assessed as decrease in mitochondrial reactive oxygen species level at 30 ug/ml pretreated for 12 hrs followed by compound washout and subsequent ischemia simulation for 2 hrs in presence of compound prior to 3 hrs reperfusion under drug free medium by MitoProbe based confocal microscopic analysis. It is filed as functional, cell-based. The settings on record: Homo sapiens.

The test system of data set [9] is HUVEC. The data set can be described thus: Protection against simulated ischemia and reperfusion injury induced mitochondrial oxidative damage in HUVEC assessed as reduction in cytochrome c release at 30 ug/ml treated for 12 hrs under normoxic condition prior to simulated ischemia for 2 hrs followed by compound washout measured 3 hrs post reperfusion by MitoProbe based immuno-fluorescence assay (reference value: 71.2 +/- 4.5%). In kind it is functional, Homo sapiens. The arrangement: scale not given: the % may be the effect or the level left.

For data set [10], the system named is Rattus norvegicus. The data set can be described thus: Protection against ischemia/reperfusion induced Wistar rat intestinal injury model assessed as reduction in denudation of villous tips at 30 mg/kg administered as bolus dose pretreated for 5 mins followed by 12 hrs reperfusion and subsequent compound treatment at 10 mg/kg administered at 1 hr interval during reperfusion period by hematoxylin-eosin/trichrome/NADH-diaphorase staining based histopathological analysis. In kind it is functional, organism-based.

In data set [11] the test system is Rattus norvegicus. The data set can be described thus: Protection against ischemia/reperfusion-induced Wistar rat intestinal injury model assessed as well-preserved glandular architecture at 30 mg/kg administered as bolus dose pretreated for 5 mins followed by 12 hrs reperfusion and subsequent compound addition at 10 mg/kg administered at 1 hr interval during reperfusion period by hematoxylin-eosin/trichrome/NADH-diaphorase staining based histopathological analysis. It is filed as functional, organism-based.

Data set [12] has as its system Rattus norvegicus. The data set can be described thus: Protection against ischemia/reperfusion-induced Wistar rat intestinal injury model assessed as reduction in lipid peroxidation by measuring lipid peroxide levels at 30 mg/kg administered as bolus dose pretreated for 5 mins followed by 12 hrs reperfusion and subsequent compound addition at 10 mg/kg administered at 1 hr interval during reperfusion period measured at 1.5 to 12 hrs post reperfusion by spectrophotometric method. In kind it is functional, organism-based.

The subject of data set [13] is Rattus norvegicus. Put plainly: Protection against ischemia/reperfusion-induced Wistar rat intestinal injury model assessed as effect on TNFalpha levels at 30 mg/kg administered as bolus dose pretreated for 5 mins followed by 12 hrs reperfusion and subsequent compound addition at 10 mg/kg administered at 1 hr interval during reperfusion period by ELISA (reference value: 62.9 +/- 8.7 pg/ml). In kind it is functional.

The test system of data set [14] is HUVEC. The data set can be described thus: Protection against simulated ischemia/reperfusion injury induced mitochondrial oxidative damage in HUVEC assessed as increase in tubular mitochondrial cells at 30 ug/ml pretreated for 12 hrs followed by compound washout and subsequent ischemia simulation for 2 hrs in presence of compound prior to 3 hrs reperfusion under drug free medium by MitoProbe based confocal microscopic analysis. In kind it is functional, cell-based. Particulars: Homo sapiens.

In data set [15] the test system is Mus musculus. The data set can be described thus: Anti-inflammatory activity in ICR mouse assessed as inhibition of xylene induced ear edema pretreated orally for 30 mins followed by xylene challenge measured after 2 hrs. In kind it is functional.
The test system of data set [16] is Mus musculus. Put plainly: Anti-inflammatory activity in ICR mouse assessed as inhibition of xylene induced ear edema at 0.02 mmol/kg, po pretreated for 30 mins followed by xylene challenge measured after 2 hrs. It is filed as functional, organism-based.
The subject of data set [17] is Rattus norvegicus. Put plainly: Protection against ischemia/reperfusion-induced Wistar rat intestinal injury model assessed as reduction in mitochondrial oxidative damage at 30 mg/kg administered as bolus dose pretreated for 5 mins followed by 12 hrs reperfusion and subsequent compound addition at 10 mg/kg administered at 1 hr interval during reperfusion period by Mitoprobe staining based assay. In kind it is functional, organism-based.

The test system of data set [18] is Rattus norvegicus. The data set can be described thus: Protection against ischemia/reperfusion induecd Wistar rat intestinal injury model assessed as decrease in mucosal neutrophil infiltration at 30 mg/kg administered as bolus dose pretreated for 5 mins followed by 12 hrs reperfusion and subsequent compound addition at 10 mg/kg administered at 1 hr interval during reperfusion period by hematoxylin-eosin/trichrome/NADH-diaphorase staining based histopathological analysis. It is filed as functional, organism-based.

Data set [19] concerns Mus musculus. Put plainly: Anti-inflammatory activity in ICR mouse assessed as inhibition of xylene induced ear edema at 20 mg/kg pretreated orally for 30 mins followed by xylene challenge measured after 2 hrs relative to control. The settings on record: po. It is filed as functional.
The subject of data set [20] is Mus musculus. The data set can be described thus: Anti-inflammatory activity in xylene induced ICR mouse ear edema model assessed as edema weight at 20 mg/kg, po pretreated 30 mins followed by xylene challenge measured after 2 hrs (reference value: 4.07 +/- 0.51 mg). It is filed as functional.

With `CC1(C)CC(n2cc(CNC(=O)C[C@@H](NC(=O)[C@@H]3Cc4c([nH]c5ccccc45)CN3C(=O)[C@@H]3Cc4c([nH]c5ccccc45)CN3)C(=O)NCc3cn(C4CC(C)(C)N([O])C(C)(C)C4)nn3)nn2)CC(C)(C)N1[O]`, the inhibition in vivo at 100 µmol/kg in the data set with Mus musculus [1] turned out to be 76.7%. Further, the Activity in the data set on Mus musculus [2] was 0.95 mg; in the data set on HUVEC [9], 29.8%; with Rattus norvegicus [13], 21.7 pg/mL. The Time with Mus musculus [3] is reported as 116.3 s; in the data set with Mus musculus [4], 118.2 s; in the data set on Mus musculus [5], 119.3 s; in the data set with Mus musculus [6] it was 120.5 s. Besides, the result with HUVEC [7], in the data set on HUVEC [8], in the data set with Rattus norvegicus [10], in the data set on Rattus norvegicus [11], in the data set on Rattus norvegicus [12] and in the data set on HUVEC [14] was Active. The inhibition result in the data set on Mus musculus [15] was “Dose-dependent effect”. Also, the inhibition entry with Mus musculus [16] is “Active”.
`CC1(C)CC(n2cc(CNC(=O)CC[C@@H](NC(=O)[C@@H]3Cc4c([nH]c5ccccc45)CN3C(=O)[C@@H]3Cc4c([nH]c5ccccc45)CN3)C(=O)NCc3cn(C4CC(C)(C)N([O])C(C)(C)C4)nn3)nn2)CC(C)(C)N1[O]`: the inhibition in vivo at 100 µmol/kg in the data set on Mus musculus [1] turned out to be 80.3%. The Activity in the data set on Mus musculus [2] was 0.8 mg; in the data set with HUVEC [9], 23.1%; in the data set on Rattus norvegicus [13], 19 pg/mL. Moreover, the Time in the data set on Mus musculus [3] stood at 116.6 s; in the data set with Mus musculus [4], 117.1 s; with Mus musculus [5], 119 s; with Mus musculus [6], 118.3 s. Moreover, the result with HUVEC [7], with HUVEC [8], in the data set on Rattus norvegicus [10], in the data set on Rattus norvegicus [11], with Rattus norvegicus [12] and in the data set on Rattus norvegicus [17] was Active. The outcome with HUVEC [14] and in the data set on Rattus norvegicus [18] was Active. In addition, the inhibition entry in the data set on Mus musculus [15] was “Dose-dependent effect”. Besides, in the data set with Mus musculus [16], the inhibition result was “Active”.
Turning to `CC(=O)Oc1ccccc1C(=O)O` [ASPIRIN], in the data set on Mus musculus [19], the inhibition in vivo at 20 mg/kg worked out at 47.1%. Besides, the Activity with Mus musculus [20] was determined as 2.15 mg.
